# From US20210045385A1, “PYRIDAZINONE-SUBSTITUTED KETOXIMES AS HERBICIDES” (FMC Corporation, priority 2018, published 2021)
# Legend:
# Type in all cases: in vivo
# [1] = tested on: Italian ryegrass (Lolium multiflorum); test: Test A preemergence, visual plant response rating; details: for Ryegrass, Italian plant response rating: preemergence, 0 to 100 scale, 0 no effect, 100 complete control; for Ryegrass, Italian plant response rating (0 to 100 scale): 500 g ai/ha Preemergence, approx. 10 days
# Procedure, shortened: (§1)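 Compared with untreated controls, treated plants received a visual injury score on a 0–100 scale around 10 days after application. The compound, in a non-phytotoxic solvent with surfactant, was given as a preemergence soil spray or postemergence at the one- to two-leaf stage.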
# [2] = tested on: barnyardgrass (Echinochloa crus-galli); test: Test A preemergence, visual plant response rating; details: for Barnyardgrass plant response rating: preemergence, 0 to 100 scale, 0 no effect, 100 complete control; for Barnyardgrass plant response rating (0 to 100 scale): 500 g ai/ha Preemergence, approx. 10 days
# Procedure, shortened: as §1
# [3] = tested on: foxtail, giant (giant foxtail, Setaria faberii); test: Test A preemergence, visual plant response rating; details: for Foxtail, Giant plant response rating: preemergence, 0 to 100 scale, 0 no effect, 100 complete control; for Foxtail, Giant plant response rating (0 to 100 scale): 500 g ai/ha Preemergence, approx. 10 days
# Procedure, shortened: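 Greenhouse pot test in loam–sand soil mix: compound in a surfactant-containing non-phytotoxic solvent applied preemergence (directed soil spray) or postemergence (one- to two-leaf plants, 2–10 cm). Injury scored visually after ~10 days, 0–100.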
# [4] = tested on: kochia (Kochia scoparia); test: Test A preemergence, visual plant response rating; details: for Kochia plant response rating: preemergence, 0 to 100 scale, 0 no effect, 100 complete control; for Kochia plant response rating (0 to 100 scale): 500 g ai/ha Preemergence, approx. 10 days
# Procedure, shortened: as §1
# [5] = tested on: pigweed (Amaranthus retroflexus); test: Test A preemergence, visual plant response rating; details: for Pigweed plant response rating: preemergence, 0 to 100 scale, 0 no effect, 100 complete control; for Pigweed plant response rating (0 to 100 scale): 500 g ai/ha Preemergence, approx. 10 days
# Procedure, shortened: as §1
# [6] = tested on: ragweed (common ragweed, Ambrosia elatior); test: Test A preemergence, visual plant response rating; details: for Ragweed plant response rating: preemergence, 0 to 100 scale, 0 no effect, 100 complete control; for Ragweed plant response rating (0 to 100 scale): 500 g ai/ha Preemergence, approx. 10 days
# Procedure, shortened: as §1
# [7] = tested on: Italian ryegrass (Lolium multiflorum); test: Test A postemergence, visual plant response rating; details: for Ryegrass, Italian plant response rating: Postemergence, 125 g ai/ha, 0 to 100 scale (0 no effect, 100 complete control)
# Procedure, shortened: as §1
# [8] = tested on: barnyardgrass (Echinochloa crus-galli); test: Test A postemergence, visual plant response rating; details: for Barnyardgrass plant response rating: Postemergence, 125 g ai/ha, 0 to 100 scale (0 no effect, 100 complete control)
# Procedure, shortened: as §1
# [9] = tested on: blackgrass (Alopecurus myosuroides); test: Test A postemergence, visual plant response rating; details: for Blackgrass plant response rating: Postemergence, 125 g ai/ha, 0 to 100 scale (0 no effect, 100 complete control)
# Procedure, shortened: as §1
# [10] = tested on: corn (Zea mays); test: Test A postemergence, visual plant response rating; details: for Corn plant response rating: Postemergence, 125 g ai/ha, 0 to 100 scale (0 no effect, 100 complete control)
# Procedure, shortened: as §1
# [11] = tested on: foxtail, giant (giant foxtail, Setaria faberii); test: Test A postemergence, visual plant response rating; details: for Foxtail, Giant plant response rating: Postemergence, 125 g ai/ha, 0 to 100 scale (0 no effect, 100 complete control)
# Procedure, shortened: as §1
# [12] = tested on: galium (catchweed bedstraw, Galium aparine); test: Test A postemergence, visual plant response rating; details: for Galium plant response rating: Postemergence, 125 g ai/ha, 0 to 100 scale (0 no effect, 100 complete control)
# Procedure, shortened: as §1
# [13] = tested on: kochia (Kochia scoparia); test: Test A postemergence, visual plant response rating; details: for Kochia plant response rating: Postemergence, 125 g ai/ha, 0 to 100 scale (0 no effect, 100 complete control)
# Procedure, shortened: as §1
# [14] = tested on: pigweed (Amaranthus retroflexus); test: Test A postemergence, visual plant response rating; details: for Pigweed plant response rating: Postemergence, 125 g ai/ha, 0 to 100 scale (0 no effect, 100 complete control)
# Procedure, shortened: as §1
# [15] = tested on: ragweed (common ragweed, Ambrosia elatior); test: Test A postemergence, visual plant response rating; details: for Ragweed plant response rating: Postemergence, 125 g ai/ha, 0 to 100 scale (0 no effect, 100 complete control)
# Procedure, shortened: as §1
# [16] = tested on: wheat (Triticum aestivum); test: Test A postemergence, visual plant response rating; details: for Wheat plant response rating: Postemergence, 125 g ai/ha, 0 to 100 scale (0 no effect, 100 complete control)
# Procedure, shortened: as §1
# [17] = tested on: barnyardgrass (Echinochloa crus-galli); test: Test B flooded paddy test, visual plant response rating; details: 250 g ai/ha, Flood, applied to paddy water, 2-leaf stage, evaluated after 13 to 15 days
# Procedure, shortened: (§2)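 Plants were raised to the 2-leaf stage, then pots were flooded to 3 cm above the soil and test compound was applied directly into the paddy water. Water depth was held for the whole test; after 13 to 15 days in a greenhouse, responses were scored visually against controls.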
# [18] = tested on: ducksalad (Heteranhera limosa); test: as above; details: 250 g ai/ha, Flood, applied to paddy water, 2-leaf stage, evaluated after 13 to 15 days
# Procedure, shortened: as §2
# [19] = tested on: rice (Oryza sativa); test: as above; details: 250 g ai/ha, Flood, applied to paddy water, 2-leaf stage, evaluated after 13 to 15 days
# Procedure, shortened: as §2
# [20] = tested on: sedge, umbrella (small-flower umbrella sedge, Cyperus difformis); test: as above; details: 250 g ai/ha, Flood, applied to paddy water, 2-leaf stage, evaluated after 13 to 15 days
# Procedure, shortened: as §2
# [21] = 500 g ai/ha, postemergence, 0 is no effect, 100 is complete control
# [22] = 31 g ai/ha Postemergence, approx. 10 days
SMILES,"Ryegrass, Italian plant response rating ([1]; 125 g ai/ha)",Barnyardgrass plant response rating ([2]; 125 g ai/ha),"Foxtail, Giant plant response rating ([3]; 125 g ai/ha)",Kochia plant response rating ([4]; 125 g ai/ha),Pigweed plant response rating ([5]; 125 g ai/ha),Ragweed plant response rating ([6]; 125 g ai/ha),"Ryegrass, Italian plant response rating [7]",Barnyardgrass plant response rating [8],Blackgrass plant response rating [9],Corn plant response rating [10],"Foxtail, Giant plant response rating [11]",Galium plant response rating [12],Kochia plant response rating [13],Pigweed plant response rating [14],Ragweed plant response rating [15],Wheat plant response rating [16],"Plant response rating, Barnyardgrass (0 to 100 scale, 0 is no effect, 100 is complete control) [17]","Plant response rating, Ducksalad (0 to 100 scale, 0 is no effect, 100 is complete control) [18]","Plant response rating, Rice (0 to 100 scale, 0 is no effect, 100 is complete control) [19]","Plant response rating, Sedge, Umbrella (0 to 100 scale, 0 is no effect, 100 is complete control) [20]",further results
CO/N=C(\c1ccccc1C#N)c1c(O)c(C)nn(C)c1=O [Compound 76],0,0,0,0,0,0,20,20,0,0,0,40,0,40,10,0,0,0,0,0,"Ryegrass, Italian plant response rating (0 to 100 scale) [1]: 0; Barnyardgrass plant response rating (0 to 100 scale) [2]: 0; Foxtail, Giant plant response rating (0 to 100 scale) [3]: 0; Kochia plant response rating (0 to 100 scale) [4]: 0; Pigweed plant response rating (0 to 100 scale) [5]: 10; Ragweed plant response rating (0 to 100 scale) [6]: 0; Ryegrass, Italian plant response rating (0 to 100 scale) [7, 21]: 30; Barnyardgrass plant response rating (0 to 100 scale) [8, 21]: 20; Blackgrass plant response rating (0 to 100 scale) [9, 21]: 0; Corn plant response rating (0 to 100 scale) [10, 21]: 0; Foxtail, Giant plant response rating (0 to 100 scale) [11, 21]: 0; Galium plant response rating (0 to 100 scale) [12, 21]: 70; Kochia plant response rating (0 to 100 scale) [13, 21]: 0; Pigweed plant response rating (0 to 100 scale) [14, 21]: 70; Ragweed plant response rating (0 to 100 scale) [15, 21]: 60; Wheat plant response rating (0 to 100 scale) [16, 21]: 0"
CON=C(c1c(OC(C)=O)c(C)nn(C)c1=O)c1cccc2ccccc12 [Compound 120],10,10,50,10,100,10,30,20,20,0,40,80,30,50,20,0,0,0,0,0,"Ryegrass, Italian plant response rating ([1]; 31 g ai/ha): 0; Barnyardgrass plant response rating ([2]; 31 g ai/ha): 0; Foxtail, Giant plant response rating ([3]; 31 g ai/ha): 20; Kochia plant response rating ([4]; 31 g ai/ha): 0; Pigweed plant response rating ([5]; 31 g ai/ha): 60; Ragweed plant response rating ([6]; 31 g ai/ha): 0; Ryegrass, Italian plant response rating (0 to 100 scale) [7, 22]: 0; Barnyardgrass plant response rating (0 to 100 scale) [8, 22]: 0; Blackgrass plant response rating (0 to 100 scale) [9, 22]: 0; Corn plant response rating (0 to 100 scale) [10, 22]: 0; Foxtail, Giant plant response rating (0 to 100 scale) [11, 22]: 0; Galium plant response rating (0 to 100 scale) [12, 22]: 40; Kochia plant response rating (0 to 100 scale) [13, 22]: 10; Pigweed plant response rating (0 to 100 scale) [14, 22]: 30; Ragweed plant response rating (0 to 100 scale) [15, 22]: 0; Wheat plant response rating (0 to 100 scale) [16, 22]: 0"
CON=C(c1c(O)c(C)nn(C)c1=O)c1ccc(Cl)c2ccccc12 [Compound 130],30,0,30,0,50,20,30,30,50,10,30,80,50,70,60,10,0,0,0,35,"Ryegrass, Italian plant response rating (0 to 100 scale) [1]: 50; Barnyardgrass plant response rating (0 to 100 scale) [2]: 70; Foxtail, Giant plant response rating (0 to 100 scale) [3]: 60; Kochia plant response rating (0 to 100 scale) [4]: 0; Pigweed plant response rating (0 to 100 scale) [5]: 50; Ragweed plant response rating (0 to 100 scale) [6]: 50; Ryegrass, Italian plant response rating (0 to 100 scale) [7, 21]: 90; Barnyardgrass plant response rating (0 to 100 scale) [8, 21]: 30; Blackgrass plant response rating (0 to 100 scale) [9, 21]: 70; Corn plant response rating (0 to 100 scale) [10, 21]: 30; Foxtail, Giant plant response rating (0 to 100 scale) [11, 21]: 70; Galium plant response rating (0 to 100 scale) [12, 21]: 90; Kochia plant response rating (0 to 100 scale) [13, 21]: 70; Pigweed plant response rating (0 to 100 scale) [14, 21]: 80; Ragweed plant response rating (0 to 100 scale) [15, 21]: 80; Wheat plant response rating (0 to 100 scale) [16, 21]: 40"
